Patent US20110178104A1, “Anti-Heparin Compounds” (POLYMEDIX INC., priority 2010, published 2011)
≈ marks a conversion by molar mass, not a printed value. Where two headings read alike, the source gives them in different places. Starred links: 1 amine or outer side, 2 acyl side, 3 side chain; linkers in the order of their positions; H or OH if unused. Non-standard residues stand in square brackets, D forms with d. Residues, ends and D or L forms follow the SMILES beside them. *: point of attachment. NH(3-CONH2-4-OMe-phenyl) = COc1ccc(N*)cc1C(N)=O; 3Abz(6-OMe) = COc1ccc(N[*:1])cc1C(=O)[*:2]; X1 = O=C(O)COc1ccc(N[*:1])cc1C(=O)[*:2]

Legend:
[1] = Cytotoxicity colorimetric assay, HepG2; assay type: cell-based, human; design: Cytotoxicity HepG2, percent printed in parentheses after the concentration: concentration or dose not given beside the values; settings: human, HepG2 cells, one hour in serum-free media
Procedure: (§1) This assay measures the bioreduction of a novel tetrazolium compound to a soluble formazan product by viable cells. HepG2 cells were seeded in 96 well plates at 3×10^4 cells/well in MEM medium with 10% fetal bovine serum (FBS) 24 hours prior to use. NIH/3T3 cells were seeded in 96 well plates at 2×10^4 cells/well in DMEM medium with 10% bovine calf serum (BCS) 24 hours prior to use. Cell monolayers were rinsed in serum-free media and incubated for one hour with test agent in serum-free media. After incubation, the media was replaced with serum supplemented media and live cells were measured using the Cell Titer 96 Aqueous […] Assay kit (Promega, Madison, Wis.). EC50 values were determined using a four parameter logistic equation: Y=Bottom+(Top-Bottom)/(1+10̂((LogEC50-X)*HillSlope)).

HepG2 cells = test: Cytotoxicity colorimetric assay, HepG2; assay type: cell-based, human; design: Cytotoxicity HepG2, percent printed in parentheses after the concentration: concentration or dose not given beside the values; settings: at the concentration given
Procedure: as §1

Unfractionated heparin = test: aPTT clotting assay, UFH 0.4 U/mL in plasma (Example 10); assay type: biochemical; settings: unfractionated heparin 0.4 U/mL in plasma; aPTT clotting
Procedure: aPTT clotting Assay: Unfractionated heparin was mixed with plasma at a final concentration of 0.4 U/mL (or concentration which increases aPTT time to between 120 and 300 seconds). […] The ACL Elite Hemostasis analyzer (Beckman Coulter™) was used to add aPTT reagent (HemosIL SynthASil) to supplemented plasma. Clotting was initiated by addition of CaCl2 and time to clot was recorded.

enoxaparin = test: FXa amidolytic assay (Example 10), enoxaparin; settings: read-out: Enox FXa EC50; enoxaparin 0.1 ug/ml; human antithrombin, bovine Factor Xa
tinzaparin = test: FXa amidolytic assay (Example 10), tinzaparin; settings: read-out: Tinzap FXa EC50; tinzaparin 0.1 ug/ml; human antithrombin, bovine Factor Xa
fondaparinux = test: FXa amidolytic assay (Example 10), fondaparinux; settings: for EC50: read-out: Fondap FXa EC50, fondaparinux 0.02 μg/mL, human antithrombin, bovine Factor Xa
[2] = tested on: isolated human erythrocytes; test: cells; assay type: cell-based; settings: Homo sapiens, Erythrocyte, 1 h, read-out: Hemolysis EC50
Procedure, shortened: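 Pooled human red cells, washed and diluted from a 0.22% stock suspension in TBS pH 7.4, were shaken with two-fold dilutions (1000 to 0.48 µg/ml) for 1 h at 37 °C. Released hemoglobin in the supernatant was read at OD405. EC50 came from a four-parameter logistic fit, with melittin as positive control.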

UFH = test: FXa amidolytic assay (Example 10), UFH; settings: read-out: Heparin FXa uM EC50; UFH 0.03 units/mL; human antithrombin, bovine Factor Xa
[3] = Cytotoxicity colorimetric assay, NIH/3T3; assay type: cell-based, mouse; settings: mouse, NIH/3T3 cells, one hour in serum-free media
Procedure: as §1

EC50 (Unfractionated heparin) [nM] | EC50 (enoxaparin) [nM] | EC50 (tinzaparin) [nM] | EC50 (fondaparinux) [nM] | EC50 (UFH) [µM] | Structure (SMILES) | EC50 at 1 h [1] [µg/mL] | Cytotoxicity HepG2, percent printed in parentheses after the concentration (HepG2 cells) [%] | EC50 ([2]; human RBC, 1 hour at 37° C.) [µg/mL] | EC50 at 1 h [3] [µg/mL] | EC50 [2] [µg/mL] | Potent LMWH-antagonists with superior anti-fondaparinux activity (summary) (fondaparinux)
1720 | 134 | 113 | 579 | – | COc1ccc(NC(=O)[C@H](CCCCN)NC(=O)c2cc(NC(=O)[C@H](CCCCN)NC(=O)c3cc(NC(=O)[C@H](CCCCN)NC(=O)c4cc(NC(=O)[C@@H](N)CCCCN)ccc4OC)ccc3OC)ccc2OC)cc1C(=O)Nc1cccc(C(=O)O)c1 [Compound 275] | 1000 (≈ 802 µM) | 50 | – | – | – | –
> 10000 | 256 | 257 | 209 | 0.242 | COc1ccc(NC(=O)[C@@H](CCCNC(=N)N)NC(=O)c2cc(NC(=O)[C@@H](CCCNC(=N)N)NC(=O)c3cc(NC(=O)[C@@H](CCCNC(=N)N)NC(=O)c4cc(NC(C)=O)ccc4OC)ccc3OC)ccc2OC)cc1C(=O)N[C@H](Cc1c[nH]c2ccccc12)C(=O)O [Compound 304] | – | 50 | ~500 (≈ 381 µM) | – | – | –
2370 | 514 | 368 | 2540 | 0.11 | COc1ccc(NC(=O)[C@H](CCCCN)NC(=O)c2cc(NC(=O)[C@H](CCCCN)NC(=O)c3cc(NC(=O)[C@H](CCCCN)NC(=O)c4cc(NC(=O)[C@@H](N)Cc5c[nH]c6ccccc56)ccc4OC)ccc3OC)ccc2OC)cc1C(N)=O [Compound 246] | 60 (≈ 50.7 µM) | 80 | > 1000 | – | – | –
2690 | 289 | 274 | 493 | 0.777 | COc1cc(OC)c(C(=O)N[C@H]2CC[C@@H](NC(=O)c3cc(C(=O)N[C@H]4CC[C@@H](NC(=O)c5cc(C(=O)NCCN)c(OC)cc5OC)CC4)c(OC)cc3OC)CC2)cc1C(=O)NCCN [Compound 381] | 1130 (≈ 1230 µM) | – | 22.4 (≈ 24.4 µM) | 1080 (≈ 1180 µM) | – | –
8810 | 198 | 410 | 146 | 0.772 | COc1cc(OC)c(C(=O)N[C@H]2CC[C@H](NC(=O)c3cc(C(=O)N[C@H]4CC[C@H](NC(=O)c5cc(C(=O)NCCN)c(OC)cc5OC)CC4)c(OC)cc3OC)CC2)cc1C(=O)NCCN [Compound 346] | > 1000 | – | > 1000 | > 1000 | – | –
1390 | 90 | 73 | 115 | 0.189 | COC(=O)c1ccc(C(=O)N[C@@H](CCCCN)C(=O)Nc2ccc(OC)c(C(=O)N[C@@H](CCCCN)C(=O)Nc3ccc(OC)c(C(=O)N[C@@H](CCCCN)C(=O)Nc4ccc(OC)c(C(=O)N[C@@H](CCCCN)C(=O)Nc5ccc(OC)c(C(N)=O)c5)c4)c3)c2)cc1 [Compound 359] | > 1000 | – | > 1000 | > 1000 | – | –
2270 | 299 | 162 | 934 | 0.287 | COc1ccc(NC(=O)[C@H](CCCCN)NC(=O)c2cc(NC(=O)[C@H](CCCCN)NC(=O)c3cc(NC(=O)[C@H](CCCCN)NC(=O)c4cc(NC(=O)[C@H](CCCCN)NC(=O)[C@@H](N)Cc5c[nH]c6ccccc56)ccc4OC)ccc3OC)ccc2OCC(=O)O)cc1C(N)=O [Compound 352] (H-WK[3Abz(6-OMe)]K[3Abz(6-OMe)]K[X1]K-{NH(3-CONH2-4-OMe-phenyl)}) | 758 (≈ 559 µM) | – | > 1000 | > 1000 | – | –
2020 | 108 | 90 | 129 | 0.213 | COc1ccc(NC(=O)[C@H](CCCCN)NC(=O)c2cc(NC(=O)[C@H](CCCCN)NC(=O)c3cc(NC(=O)[C@H](CCCCN)NC(=O)c4cc(NC(=O)[C@H](CCCCN)NC(=O)c5c[nH]c6ccccc56)ccc4OC)ccc3OC)ccc2OC)cc1C(N)=O [Compound 349] | 236 (≈ 186 µM) | – | > 1000 | 108 (≈ 85.1 µM) | – | –
1620 | 464 | 95 | > 10000 | 0.13 | COc1cc(OCC(N)=O)c(C(=O)N[C@H]2CC[C@H](NC(=O)c3cc(C(=O)NCCN(C)C)c(OCCCCCN)cc3OCCCCCN)CC2)cc1C(=O)N[C@H]1CC[C@H](NC(=O)c2cc(C(=O)NCCN(C)C)c(OCCCCCN)cc2OCCCCCN)CC1 [Compound 379] | > 1000 | – | > 1000 | 650 (≈ 499 µM) | – | –
627 | 147 | 128 | 146 | 0.291 | COc1ccc(NC(=O)[C@H](CCCCN)NC(=O)c2cc(NC(=O)[C@H](CCCCN)NC(=O)c3cc(NC(=O)[C@H](CCCCN)NC(=O)c4cc(NC(=O)[C@H](CCCCN)NC(=O)c5c[nH]c6ccccc56)ccc4OC)ccc3OC)ccc2OCC(=O)O)cc1C(N)=O [Compound 350] | 425 (≈ 324 µM) | – | > 1000 | 150 (≈ 114 µM) | – | –
1810 | 129 | 111 | 441 | 0.108 | COc1ccc(NC(=O)[C@@H](CCCNC(=N)N)NC(=O)c2cc(NC(=O)[C@@H](CCCNC(=N)N)NC(=O)c3cc(NC(=O)[C@@H](CCCNC(=N)N)NC(=O)c4cc(NC(=O)[C@H](N)CCCNC(=N)N)ccc4OC)ccc3OC)ccc2OCC(=O)O)cc1C(N)=O [Compound 281] | 1000 (≈ 780 µM) | 50 | > 1000 | – | – | –
7120 | 293 | 318 | 225 | 0.215 | COc1ccc(NC(=O)[C@@H](CCCNC(=N)N)NC(=O)c2cc(NC(=O)[C@@H](CCCNC(=N)N)NC(=O)c3cc(NC(=O)[C@@H](CCCNC(=N)N)NC(=O)c4cc(NC(C)=O)ccc4OC)ccc3OC)ccc2OC)cc1C(=O)N[C@H](Cc1ccc(O)cc1)C(=O)O [Compound 297] | 300 (≈ 233 µM) | 60 | > 1000 | – | – | –
1690 | 89 | 71 | 180 | 0.164 | COc1cc(OC)c(C(=O)N[C@H]2CC[C@@H](NC(=O)c3ccc(OCCCCCNC(=N)N)cc3OCCCCCNC(=N)N)CC2)cc1C(=O)N[C@H]1CC[C@@H](NC(=O)c2ccc(OCCCCCNC(=N)N)cc2OCCCCCNC(=N)N)CC1 [Compound 380] | 81.3 (≈ 67.8 µM) | – | > 1000 | 43.2 (≈ 36 µM) | – | –

Structure (SMILES) | EC50 (Unfractionated heparin) [nM] | EC50 (enoxaparin) [nM] | EC50 (tinzaparin) [nM] | EC50 (fondaparinux) [nM] | EC50 (UFH) [µM] | EC50 at 1 h [1] [µg/mL] | Cytotoxicity HepG2, percent printed in parentheses after the concentration (HepG2 cells) [%] | EC50 ([2]; human RBC, 1 hour at 37° C.) [µg/mL] | EC50 at 1 h [3] [µg/mL] | EC50 [2] [µg/mL] | Potent LMWH-antagonists with superior anti-fondaparinux activity (summary) (fondaparinux)
COc1ccc(NC(=O)[C@H](CCCCN)NC(=O)c2cc(NC(=O)[C@H](CCCCN)NC(=O)c3cc(NC(=O)[C@H](CCCCN)NC(=O)c4cc(NC(=O)[C@H](CCCCN)NC(=O)Cc5ccccc5)ccc4OC)ccc3OC)ccc2OC)cc1C(N)=O [Compound 355] | 1410 | 95 | 67 | 800 | 0.147 | 133 (≈ 107 µM) | – | – | 52 (≈ 41.8 µM) | > 1000 | –
COc1ccc(NC(=O)[C@H](CCCCN)NC(=O)c2cc(NC(=O)[C@H](CCCCN)NC(=O)c3cc(NC(=O)[C@H](CCCCN)NC(=O)c4cc(NC(=O)[C@H](CCCCN)NC(=O)c5ccccc5)ccc4OC)ccc3OC)ccc2OCC(=O)O)cc1C(N)=O [Compound 354] | 2200 | 117 | 109 | 202 | 0.214 | > 1000 | – | – | > 1000 | > 1000 | superior anti-fondaparinux activity
COc1ccc(NC(=O)[C@H](CCCCN)NC(=O)c2cc(NC(=O)[C@H](CCCCN)NC(=O)c3cc(NC(=O)[C@H](CCCCN)NC(=O)c4cc(NC(=O)[C@H](CCCCN)NC(=O)c5ccccc5)ccc4OC)ccc3OC)ccc2OC)cc1C(N)=O [Compound 353] | 1630 | 123 | 104 | 407 | 0.198 | > 1000 | – | – | ~100 (≈ 81.3 µM) | > 1000 | –
